Source: article PMC4390552 (Chemical biology & drug design, 2014)

Key:
Type in all cases: cell-based, human
[1] = system: HPASMC; experiment: MTT cell viability assay; conditions: 100 μM CPP (H2O2 0.5 mM), 30-min incubation, OD 570 nm, quadruplicate
[2] = system: ERK phosphorylation in HPASMC; experiment: Growth factor-stimulated ERK phosphorylation in HPASMC; conditions: for ERK activation in HPASMC by growth factor: 10 ng/mL PDGF or VEGF in serum-free medium, Western blot, three experiments
[3] = system: Akt phosphorylation in HPASMC; experiment: Growth factor-stimulated Akt phosphorylation in HPASMC; conditions: for Akt activation in HPASMC by growth factor: 10 ng/mL PDGF or VEGF in serum-free medium, Western blot, three experiments
[4] = system: Akt phosphorylation in HPAEC; experiment: Growth factor-stimulated Akt phosphorylation in HPAEC; conditions: 10 ng/mL PDGF or VEGF in serum-free medium; Western blot, three experiments
[5] = system: ERK phosphorylation in HPAEC; experiment: Growth factor-stimulated ERK phosphorylation in HPAEC; conditions: for ERK activation in HPAEC by growth factor: 10 ng/mL PDGF or VEGF in serum-free medium, Western blot, three experiments

Molecule	Effect on cell viability (MTT) [1]	ERK phosphorylation in HPASMC by EGF ([2]; 1 ng/mL EGF)	Akt phosphorylation in HPASMC by EGF ([3]; 1 ng/mL EGF)	Akt activation in HPAEC by growth factor [4]	ERK activation in HPASMC by growth factor [2]	Concentration at which the dose response of ERK activation maximized ([2]; HPASMC, increasing PDGF in serum-free medium) [ng/mL]	ERK activation in HPAEC by growth factor [5]	Akt activation in HPASMC by growth factor [3]	Concentration at which the dose response of ERK activation maximized ([5]; HPAEC, increasing VEGF in serum-free medium) [ng/mL]
OO [Hydrogen peroxide]	statistically significant toxicity	–	–	–	–	–	–	–	–
EGF: epidermal growth factor (NSDSECPLSHDGYCLHDGVCMYIEALDKYACNCVVGYIGERCQYRDLKWWELR; UniProt P01133 971-1023, looked up)	–	induced the phosphorylation of both ERK and Akt	induced the phosphorylation of both ERK and Akt	–	–	–	–	–	–
PDGF	–	–	–	failed to activate Akt	activated	1	inactive	activated	–
VEGF	–	–	–	failed to activate Akt	no activity	–	strong ERK phosphorylation	no activity	1
